{"source": "paper PMC6831561", "about": "“Pharmacological and Behavioral Effects of the Synthetic Cannabinoid AKB48 in Rats” (Frontiers in Neuroscience, 2019)", "origin": "cited, not measured here", "tested_on": "extracellular DA levels", "conditions": "ref De Luca et al., 2015, cited from earlier work", "note": "Read-outs that look alike come from different tables or passages of the source.", "data": [{"compound": "CCCCCn1cc(C(=O)c2cccc3ccccc23)c2ccccc21", "note": "[JWH-018, Naphthalen-1-yl-(1-pentylindol-3-yl)methanone]", "values": [{"measurement": "max increase of DA in the NAc shell", "setting": "JWH-018 0.25 mg/kg ip, from 20 to 70 min, Miliano et al., 2016", "value": "about 60%"}, {"measurement": "DA release in the NAc shell", "setting": "JWH-018 0.25 mg/kg", "value": "increased DA release"}, {"measurement": "DA release in the NAc shell", "setting": "JWH-018 high doses (1 and 3 mg/kg)", "value": "no effect"}, {"measurement": "DA release in the NAc shell", "setting": "JWH-018 lower (0.125 mg/kg) and higher (0.50 mg/kg) doses", "value": "ineffective"}]}]}
